For assay [1], the system named is Burkholderia glumae. The class given is in vivo.
The test system of assay [2] is Burkholderia glumae. As to conditions: rice, 150 g ai/ha, 1 spray, 29 days after the 1st spray.
Setting [3] is: rice at harvest, 150 g ai/ha, 2 sprays.

Where two headings read alike, the source gives them in different places.

In the case of `CCC1(C(=O)N[C@H](C)c2ccc(Cl)cc2)C(C)C1(Cl)Cl` (some centres unmarked) [CARPROPAMID], the “Yield (% of untreated)” value in the assay on Burkholderia glumae [1] (setting [3]) is listed as 108%. Moreover, in the assay with Burkholderia glumae [1] (setting [3]), the “Yield T/ha” value is 9.06 T/ha. The “% efficacy (Abbott), Burkholderia glumae incidence on panicles” value is on record as 43% in the assay on Burkholderia glumae [1] (rice, 150 g ai/ha, 2 sprays, 44 days after the 2nd spray) and 36% in the assay on Burkholderia glumae [2].
Consider `N#Cc1ccccc1NC(=O)c1snc(Cl)c1Cl` [Isotianil, isotianil], for which the final yield increase result in the assay on Burkholderia glumae [1] (rice, harvest trial, Isotianil treated plots) is “about 20%”.

(Values after patent US20150011394A1 (priority 2012, published 2015).)
